Reference: ChEMBL document CHEMBL3244158, “Dimerization of coralyne and its propyl analogue and their association with DNA” (J Med Chem, 1979)
The source made the active and inactive calls. No cut-off for these calls is given here.

Test system: Calf thymus DNA
Assay: Binding affinity to calf thymus DNA at 0.033 to 0.995 ligand to DNA ratio by spectrophotometer analysis
Type: nucleic-acid assay
Details: Bos taurus

| SMILES | Activity |
| --- | --- |
| CCCc1c2cc(OC)c(OC)cc2cc2c3cc(OC)c(OC)cc3cc[n+]12 | Active |
| COc1cc2cc3c4cc(OC)c(OC)cc4cc[n+]3c(C)c2cc1OC | Active |
